Patent EP0258134A1, “Therapeutical compositions containing benzhydryl thiomethane derivatives” (LABORATOIRE L. LAFON, priority 1986, dated 1988)
Marks after values point to notes of the source that are not given here.

Legend:
Format in all cases: in vivo
souris [1] = experiment: Motility reduced by habituation to the enclosure; details: dès la dose de 2 mg/kg
Description: Après 18 heures de séjour dans les actimè-tres, les souris (6 par dose, 12 témoins) reçoivent le composé CRL 41 334. Elles sont aussitôt replacées dans leurs enceintes respectives et, une demi-heure plus tard, on enregistre leur motilité pendant 30 minutes.
Après 18 heures de séjour dans les actimètres, les souris (6 par dose, 12 émoins) reçoivent le CRL 41 055. Elles sontaussitôt replacées dans leurs enceintes respectives et, une demi-heure plus tard, on enregistre leur motilité pendant 30 minutes.

rat [2] = experiment: Search for stereotyped movements, rat
Description: Des lots de 6 rats reçoivent une injection du composé CRL 41 334 ou d'amphétamine, puis sont immédiatement placés dans des boîtes de petites dimensions (20 x 10 x 10 cm) où leur comportement stéréotypeé est coté de 0 à 3 jusqu'à extinction de l'effet.

souris [3] = experiment: Motility reduced by hypoxic aggression
Description: Une demi-heure après avoir reçu le composé CRL 41 334, les souris (10 par dose, 20 témoins) sont soumises à une anoxie hypobare aigüe (dépression de 60 mmHg en 90 secondes, détente de 45 secondes), puis elles sont placées en actimètre où leur motilité est enregistrèe pendant 10 minutes.

souris [4] = experiment: Intergroup aggressiveness; details: 32 et 128 mg/kg
Description: Après avoir séjourné pendant 3 semaines dans chacune des moitiés d'une cage séparées par une cloison opaque, des groupes de 3 souris reçoivent le composé CRL 41 334. Une demi-heure plus tard, les deux groupes d'une même cage sont réunis par retrait de la cloison et on note le nombre de combats qui surviennent en 10 minutes. Le test est pratiqué pour moitié sur les souris habituelles (NMRI, C.E.R. Janvier) et pour moitié sur des souris NMRI (Iffa Credo).
Après avoir séjourné pendant 3 semaines dans chacune des moitiés d'une cage séparée par une cloison opaque, des groupes de 3 souris reçoivent le CRL 40 956. Une demi-heure plus tard, les deux groupes d'une même cage sont réunis par retrait de la cloison et on note le nombre de combats qui surviennent en 10 minutes.

homme = experiment: Therapeutic use in humans; details: homme, voie orale, 4 fois 50 mg par jour
[5] = tested on: souris femelles de souche OF₁; experiment: Delayed hypersensitivity reaction to sheep red blood cells; details: for Ind. Activité / % d'augmentation du coussinet (mm) m: voie orale; for % d'augmentation du coussinet (mm) m: trois jours avant immunisation
Description: Selon la méthode de Miller, Lagrange et Mackaness ("Immunopotentiation with BCG II modulation of the response to sheep red blood cells", Journal of the National Cancer Institute 1973, 51, 5, 1669 - 1676).
Le composé à tester est administré par voie orale a des souris femelles de souche OF₁ trois jours avant immunisation.
Les résultats sont exprimés en pourcentage d'augmentation du coussinet plantaire.

souris [6] = experiment: Interaction with oxotremorine, mouse; details: oxotrémorine 0,5 mg/kg i.p.
Description: Le composé CRL 41 334 est administré à des lots de 6 souris une demi-heure avant l'injection intrapéritonéale de 0,5 mg/kg d'oxotrémorine.

souris [7] = experiment: Global behaviour and reactivities, mouse, i.p.
Description: (§1) Le composé CRL 41 334, en suspension dans une solution de gomme arabique, a été administré par voie intrapéritonéale sous un volume de 20 ml/kg chez la souris (mâle, NMRI, C.E.R. Janvier) et de 5 ml/kg chez le rat (mâle, CD₁; SPRAGUE DAWLEY, Charles River).
(§2) Des lots de 3 animaux sont observés avant, puis 15 mn, 30 mn, 1h, 2h, 3h et 24 heures après l'administration du composé CRL 41 334.
Le CRL 41 055, en suspension dans une solution de gomme arabique, a été administré par voie intrapéritonéale sous un volume de 20 ml/kg chez la souris (mâle, NMRI, Evic Ceba).
(§3) Le CRL 40 956, en suspension dans une solution de gomme arabique a été administré par voie intrapéritonéale sous un volume de 20 ml/kg chez la souris (mâle, NMRI, Evic Céba) et de 5 ml/kg chez le rat (mâle, CD₁, Sprague Dawley, Charles River).
(§4) Des lots de 3 animaux sont observés avant, puis 15 mn, 30 mn, 1 h, 2 h, 3 h et 24 heures après l'administration de CRL 40 956.

souris [8] = experiment: Interaction with reserpine, mouse
Description: Quatre heures après l'injection intrapéritonéale de 2,5 mg/kg de réserpine, des lots de 12 souris reçoivent le composé CRL 41 334. • 1 - Action sur la température • 2 - Action sur le ptosis

souris [9] = experiment: Asphyxic anoxia (gallamine triethiodide); details: 128 mg/kg, triiodoéthylate de gallamine 32 mg/kg i.p.
Description: Des lots de 20 souris reçoivent le composé CRL 41 334 une demi-heure avant l'administration intrapéritonéale de 32 mg/kg de triiodoéthylate de gallamine.
Des lots de 10 souris reçoivent le CRL 40 956 une demi-heure avant l'administration intrapé-ritonéale de 32 mg/kg de triodoéthylate de Gallamine.

rat [10] = experiment: Global behaviour and reactivities, rat, i.p.
Description: as §1, §2, §3, §4

souris [11] = experiment: Electroshock; details: 128 mg/kg
Description: Le test est pratiqué sur des lots de 10 souris, une demi-heure après l'administration du composé CRL 41 334.

[12] = souris, 128 mg/kg, réserpine 2,5 mg/kg i.p.

NC(=O)CSC(c1ccc(F)cc1)c1ccc(F)cc1 [CRL 41 334, 2-(4,4ʹ-difluorobenzhydrylthio)acétamide]
activité motrice chez la souris habituée à son enceinte (souris [1]): reprise nette de l'activité motrice | durée des stéréotypies (rat [2]; 128 mg/kg): > 420 min | stéréotypies atteignent leur maximum (rat [2]; 128 mg/kg): 120 to 150 min | intensité des stéréotypies (rat [2]; 64 et 128 mg/kg, compared with amphétamine): comparable à celle obtenue respectivement avec 1 et 2 mg | récupération motrice après anoxie hypobare (souris [3]; 32 et 128 mg/kg): amélioration est importante | récupération motrice après anoxie hypobare (souris [3]; dès la dose de 2mg/kg): amélioration de la récupération | nombre de combats (souris [4]): diminue le nombre de combats | traitement des dépressions des brûlés (homme): bons résultats | Ind. Activité ([5]; Exp 1, 0,1 mg/kg): 1,15 | % d'augmentation du coussinet (mm) m ([5]; Exp 1, 0,1 mg/kg): 10,6% | Ind. Activité ([5]; Exp 1, 1 mg/kg): 1,10 | % d'augmentation du coussinet (mm) m ([5]; Exp 1, 1 mg/kg): 10,2% | Ind. Activité ([5]; Exp 1, 10 mg/kg): 1,29 | % d'augmentation du coussinet (mm) m ([5]; Exp 1, 10 mg/kg): 12,0% | Ind. Activité ([5]; Exp 1, 100 mg/kg): 1,59 | % d'augmentation du coussinet (mm) m ([5]; Exp 1, 100 mg/kg): 14,7^x % | Ind. Activité ([5]; Exp 2, 0,1 mg/kg): 1,31 | % d'augmentation du coussinet (mm) m ([5]; Exp 2, 0,1 mg/kg): 11,0% | Ind. Activité ([5]; Exp 2, 1 mg/kg): 1,25 | % d'augmentation du coussinet (mm) m ([5]; Exp 2, 1 mg/kg): 10,5% | Ind. Activité ([5]; Exp 2, 10 mg/kg): 1,34 | % d'augmentation du coussinet (mm) m ([5]; Exp 2, 10 mg/kg): 11,2% | Ind. Activité ([5]; Exp 2, 100 mg/kg): 1,56 | % d'augmentation du coussinet (mm) m ([5]; Exp 2, 100 mg/kg): 13,1% | action immunostimulante ([5]; overall statement in the text): une action immunostimulante | Action sur la température (souris [6]; 128 mg/kg): aggrave l'hypothermie induite par l'oxotrémorine | Action sur les symptômes chlolinergiques périphériques (souris [6]; 128 mg/kg): diminue la défécation sans modifier la salivation et la lacrymation | Action sur les tremblements (souris [6]): ne sont pas modifiés | comportement et réactivités (souris [7]; souris, 128 mg/kg i.p.): sédation pendant 30 minutes | Hypothermie (souris [7]; souris, 128 mg/kg i.p., à 30 minutes, durée 1 heure): -4,1 ° | comportement et réactivités (souris [7]; souris, 2, 8 et 32 mg/kg i.p.): pas de modifications nettes du comportement et des réactivités | hypothermie réserpinique (souris [8]; [12]): aggrave modérément l'hypothermie réserpinique | ptosis (souris [8]; [12]): n'est pas modi-fié | hypothermie et ptosis réserpiniques (souris [8]; souris, 8, 32 ou 128 mg/kg, au temps 24 heures): semble s'opposer à l'hypothermie et au ptosis réserpiniques | délai d'apparition de la mort (souris [9]): augmente le délai d'apparition de la mort | délai d'apparition des convulsions (souris [9]): n'est pas modifié | comportement et réactivités (rat [10]; rat, 64 mg/kg i.p.): sédation pendant 15 minutes | diamètre pupillaire (rat [10]; rat, 64 mg/kg i.p., à 1 heure): mydriase très modérée et brève | comportement, réactivités, variation du diamètre pupillaire et de la température rectale (rat [10]; rat, 1, 4 et 16 mg/kg i.p.): comparables à ceux du lot témoin | effets convulsivants de l'électrochoc (souris [11]): s'oppose faiblement aux effets convulsivants | effets létaux de l'électrochoc (souris [11]): sans modifier les effets létaux
